The target of this assay is T1, human S1P1 receptor (Homo sapiens, UniProt P21453).
T1 construct: expressed in transfected cells; membranes used
Briefly: GTP γ35S binding assay for S1P1 activity. Particulars: membranes of cells stably expressing S1P1 receptor, agonist potency, test range 0.08 to 5,000 nM. Type of assay: biochemical. Here is the method: Compounds were synthesized and tested for S1P1 activity using the GTP γ^35S binding assay. These compounds may be assessed for their ability to activate or block activation of the human S1P1 receptor in cells stably expressing the S1P1 receptor.
GTP γ^35S binding was measured in the medium containing (mM) HEPES 25, pH 7.4, MgCl2 10, NaCl 100, dithitothreitol 0.5, digitonin 0.003%, 0.2 nM GTP γ^35S, and 5 μg membrane protein in a volume of 150 μl. Test compounds were included in the concentration range from 0.08 to 5,000 nM unless indicated otherwise. Membranes were incubated with 100 μM 5′-adenylylimmidodiphosphate for 30 min, and subsequently with 10 μM GDP for 10 min on ice. Drug solutions and membrane were mixed, and then reactions were initiated by adding GTP γ^35S and continued for 30 min at 25° C. Reaction mixtures were filtered over Whatman GF/B filters under vacuum, and washed three times with 3 mL of ice-cold buffer (HEPES 25, pH7.4, MgCl2 10 and NaCl 100). Filters were dried and mixed with scintillant, and counted for ^35S activity using a […]. Agonist-induced GTP γ^35S binding was obtained by subtracting that in the absence of agonist. Binding data were analyzed using a non-linear regression method. In case of antagonist assay, the reaction mixture contained 10 nM S1P in the presence of test antagonist at concentrations ranging from 0.08 to 5000 nM.

Eleven compounds from patent US8729062B2, “Benzyl azetidine derivatives as sphingosine 1-phosphate (S1P) receptor modulators” (Allergan, Inc., priority 2010, dated 2014) can be followed below.

As a reminder, the EC50 is the concentration that produces a half-maximal response.

T1 sequence (P21453 whole entry): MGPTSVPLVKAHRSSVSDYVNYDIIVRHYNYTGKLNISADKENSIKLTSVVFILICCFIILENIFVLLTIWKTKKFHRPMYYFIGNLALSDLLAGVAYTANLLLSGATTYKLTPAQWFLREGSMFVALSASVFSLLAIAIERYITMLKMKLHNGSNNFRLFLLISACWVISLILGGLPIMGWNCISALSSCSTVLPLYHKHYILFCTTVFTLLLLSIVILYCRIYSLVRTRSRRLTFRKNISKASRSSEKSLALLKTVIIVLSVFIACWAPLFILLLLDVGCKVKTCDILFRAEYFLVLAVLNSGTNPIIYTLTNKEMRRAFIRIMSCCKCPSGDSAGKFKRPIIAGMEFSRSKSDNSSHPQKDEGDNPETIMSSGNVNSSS

Regarding `Cc1ccc(CC(c2cc(F)cc(F)c2)c2nc(-c3ccc(CN4CC(C(=O)O)C4)cc3)no2)cc1C` (centres unmarked) [1-(4-{5-[1-(3,5-difluorophenyl)-2-(3,4-dimethylphenyl)ethyl]-1,2,4-oxadiazol-3-yl}benzyl)azetidine-3-carboxylic acid], the concentration giving a half-maximal response (EC50) amounted to 0.0171 µM.
Under `O=C(O)C1CN(Cc2ccc(-c3noc(C(CC4CCCCC4)c4cccc(Cl)c4)n3)cc2)C1` (centres unmarked) [1-(4-{5-[1-(3-chlorophenyl)-2-cyclohexylethyl]-1,2,4-oxadiazol-3-yl}benzyl)azetidine-3-carboxylic acid] stands 1.24 µM.
For the compound `Cc1ccc(CC(c2cncc(Cl)c2)c2nc(-c3ccc(CN4CC(C(=O)O)C4)cc3)no2)cc1C` (centres unmarked) [1-(4-{5-[1-(5-chloropyridin-3-yl)-2-(3,4-dimethylphenyl)ethyl]-1,2,4-oxadiazol-3-yl}benzyl)azetidine-3-carboxylic acid], the response was half-maximal at 0.0299 µM (EC50).
With `Cc1ccc(CC(c2nc(-c3ccc(CN4CC(C(=O)O)C4)cc3)no2)c2cccs2)cc1C` (centres unmarked) [1-(4-{5-[2-(3,4-dimethylphenyl)-1-(2-thienyl)ethyl]-1,2,4-oxadiazol-3-yl}benzyl)azetidine-3-carboxylic acid] the figure was 0.134 µM; with `Cc1cc(C)cc(C(Cc2ccc(C)c(C)c2)c2nc(-c3ccc(CN4CC(C(=O)O)C4)cc3)no2)c1` (centres unmarked) [1-(4-{5-[2-(3,4-dimethylphenyl)-1-(3,5-dimethylphenyl)ethyl]-1,2,4-oxadiazol-3-yl}benzyl)azetidine-3-carboxylic acid], 0.535 µM.
Compound `Cc1ccc(CC(c2ccsc2)c2nc(-c3ccc(CN4CC(C(=O)O)C4)cc3)no2)cc1C` (centres unmarked) [1-(4-{5-[2-(3,4-dimethylphenyl)-1-(3-thienyl)ethyl]-1,2,4-oxadiazol-3-yl}benzyl)azetidine-3-carboxylic acid] returned an EC50 of 0.0767 µM.
`Cc1ccc(CC(c2nc(-c3ccc(CN4CC(C(=O)O)C4)cc3)no2)c2cccs2)cc1` (centres unmarked) [1-(4-{5-[2-(4-methylphenyl)-1-(2-thienyl)ethyl]-1,2,4-oxadiazol-3-yl}benzyl)azetidine-3-carboxylic acid] returned an EC50 of 0.209 µM.
With `Cc1ccc(CC(c2ccsc2)c2nc(-c3ccc(CN4CC(C(=O)O)C4)cc3)no2)cc1` (centres unmarked) [1-(4-{5-[2-(4-methylphenyl)-1-(3-thienyl)ethyl]-1,2,4-oxadiazol-3-yl}benzyl)azetidine-3-carboxylic acid] the figure was 0.146 µM; with `Cc1ccc(CC(c2cccc(C(F)(F)F)c2)c2nc(-c3ccc(CN4CC(C(=O)O)C4)cc3)no2)cc1C` (centres unmarked) [1-[4-(5-{2-(3,4-dimethylphenyl)-1-[3-(trifluoromethyl)phenyl]ethyl}-1,2,4-oxadiazol-3-yl)benzyl]azetidine-3-carboxylic acid], 0.0893 µM; with `Cc1ccc(CC(c2cccc(Cl)c2)c2nc(-c3ccc(CN4CC(C(=O)O)C4)cc3)no2)cc1C` (centres unmarked) [Compound 1, 1-(4-{5-[1-(3-Chlorophenyl)-2-(3,4-dimethylphenyl)ethyl]-1,2,4-oxadiazol-3-yl}benzyl)azetidine-3-carboxylic acid], 0.00377 µM.
Regarding `Cc1ccc(CC(c2cccc(F)c2)c2nc(-c3ccc(CN4CC(C(=O)O)C4)cc3)no2)cc1C` (centres unmarked) [Compound 2, 1-(4-{5-[1-(3-fluorophenyl)-2-(3,4-dimethylphenyl)ethyl]-1,2,4-oxadiazol-3-yl}benzyl)azetidine-3-carboxylic acid], the EC50 stood at 0.0015 µM.
